From ChEMBL document CHEMBL3885881, “DrugMatrix”

Species: Rattus norvegicus
Assay: DrugMatrix - Regimen: Daily Repeat
Format: toxicity, organism-based, Sprague-Dawley
Design: regimen Daily Repeat, gender Male, age 6-8 weeks
Conditions: in vivo, po, […], route oral GAVAGE, dose 1.7 mg/Kg, dose level Low; for ABSOLUTE BASOPHIL / ABSOLUTE EOSINOPHIL / ABSOLUTE LYMPHOCYTE / ABSOLUTE MONOCYTE / ABSOLUTE SEGMENTED NEUTROPHIL / BASOPHIL / EOSINOPHIL / ERYTHROCYTE COUNT / HEMATOCRIT / HEMOGLOBIN / LEUKOCYTE COUNT / LYMPHOCYTE / MEAN CORPUSCULAR HEMOGLOBIN / MEAN CORPUSCULAR HEMOGLOBIN CONCENTRATION / MEAN CORPUSCULAR VOLUME / MONOCYTE / NEUTROPHIL / NUCLEATED RED BLOOD CELLS / PLATELET COUNT: tissue Blood; for ALANINE AMINOTRANSFERASE / ALBUMIN / ALKALINE PHOSPHATASE / ASPARTATE AMINOTRANSFERASE / BLOOD UREA NITROGEN / CARBON DIOXIDE / CHLORIDE / CHOLESTEROL / CREATINE PHOSPHOKINASE / CREATININE / GLUCOSE / LACTATE DEHYDROGENASE / LIPASE / PHOSPHORUS / POTASSIUM / SODIUM / TOTAL BILIRUBIN / TOTAL PROTEIN / URIC ACID: tissue Plasma

`C#C[C@]1(OC(C)=O)CC[C@H]2[C@@H]3CCC4=CC(=O)CC[C@@H]4[C@H]3CC[C@@]21C` [NORETHINDRONE ACETATE] was tested, and the “ABSOLUTE BASOPHIL” value (72 h, time 3 day) was 0 CELLS/uL, the “ABSOLUTE EOSINOPHIL” value (72 h, time 3 day) was 0 CELLS/uL and the “ABSOLUTE LYMPHOCYTE” value (72 h, time 3 day) was 14146.67 CELLS/uL. For the same molecule, the “ABSOLUTE MONOCYTE” value (72 h, time 3 day) was 167 CELLS/uL, the “ABSOLUTE SEGMENTED NEUTROPHIL” value (72 h, time 3 day) was 1486.33 CELLS/uL and the BASOPHIL (72 h, time 3 day) was 0%. The EOSINOPHIL (72 h, time 3 day) was 0%, the “ERYTHROCYTE COUNT” value (72 h, time 3 day) was 5.62 x10E6/uL and the HEMATOCRIT (72 h, time 3 day) was 33.97%. The HEMOGLOBIN (72 h, time 3 day) was 13.3 G/DL, the “LEUKOCYTE COUNT” value (72 h, time 3 day) was 15.8 x10E3/uL and the LYMPHOCYTE (72 h, time 3 day) was 89.33%. For the same molecule, the “MEAN CORPUSCULAR HEMOGLOBIN” value (72 h, time 3 day) was 23.7 pg, the “MEAN CORPUSCULAR HEMOGLOBIN CONCENTRATION” value (72 h, time 3 day) was 39.17 G/DL and the “MEAN CORPUSCULAR VOLUME” value (72 h, time 3 day) was 60.5 fL. The MONOCYTE (72 h, time 3 day) was 1%, the NEUTROPHIL (72 h, time 3 day) was 9.67% and the “NUCLEATED RED BLOOD CELLS” value (72 h, time 3 day) was 0 /100WBC. The “PLATELET COUNT” value (72 h, time 3 day) was 1255.67 x10E3/uL, the “ALANINE AMINOTRANSFERASE” value (72 h, time 3 day) was 61.67 u/L and the ALBUMIN (72 h, time 3 day) was 4.07 G/DL. The “ALKALINE PHOSPHATASE” value (72 h, time 3 day) was 473.33 u/L, the “ASPARTATE AMINOTRANSFERASE” value (72 h, time 3 day) was 85 u/L and the “BLOOD UREA NITROGEN” value (72 h, time 3 day) was 14.33 mg/dL. For the same molecule, the “CARBON DIOXIDE” value (72 h, time 3 day) was 26.67 mmol/L, the CHLORIDE (72 h, time 3 day) was 99.67 MEQ/L and the CHOLESTEROL (72 h, time 3 day) was 62.33 mg/dL. For the same molecule, the “CREATINE PHOSPHOKINASE” value (72 h, time 3 day) was 351 u/L, the CREATININE (72 h, time 3 day) was 0.17 mg/dL and the GLUCOSE (72 h, time 3 day) was 158.33 mg/dL. For the same molecule, the “LACTATE DEHYDROGENASE” value (72 h, time 3 day) was 371.33 u/L, the LIPASE (72 h, time 3 day) was 10.33 u/L and the PHOSPHORUS (72 h, time 3 day) was 12.87 mg/dL. For the same molecule, the POTASSIUM (72 h, time 3 day) was 6.54 MEQ/L, the SODIUM (72 h, time 3 day) was 143.43 MEQ/L and the “TOTAL BILIRUBIN” value (72 h, time 3 day) was 0.17 mg/dL. For the same molecule, the “TOTAL PROTEIN” value (72 h, time 3 day) was 5.73 G/DL, the “URIC ACID” value (72 h, time 3 day) was 1.37 mg/dL and the “ABSOLUTE BASOPHIL” value (120 h, time 5 day) was 0 CELLS/uL. The “ABSOLUTE EOSINOPHIL” value (120 h, time 5 day) was 62 CELLS/uL, the “ABSOLUTE LYMPHOCYTE” value (120 h, time 5 day) was 13760.33 CELLS/uL and the “ABSOLUTE MONOCYTE” value (120 h, time 5 day) was 100.67 CELLS/uL. For the same molecule, the “ABSOLUTE SEGMENTED NEUTROPHIL” value (120 h, time 5 day) was 1110.33 CELLS/uL, the BASOPHIL (120 h, time 5 day) was 0% and the EOSINOPHIL (120 h, time 5 day) was 0.33%. The “ERYTHROCYTE COUNT” value (120 h, time 5 day) was 5.76 x10E6/uL, the HEMATOCRIT (120 h, time 5 day) was 36.33% and the HEMOGLOBIN (120 h, time 5 day) was 14.4 G/DL. The “LEUKOCYTE COUNT” value (120 h, time 5 day) was 15.03 x10E3/uL, the LYMPHOCYTE (120 h, time 5 day) was 91.67% and the “MEAN CORPUSCULAR HEMOGLOBIN” value (120 h, time 5 day) was 25.07 pg. The “MEAN CORPUSCULAR HEMOGLOBIN CONCENTRATION” value (120 h, time 5 day) was 39.67 G/DL, the “MEAN CORPUSCULAR VOLUME” value (120 h, time 5 day) was 63.17 fL and the MONOCYTE (120 h, time 5 day) was 0.67%. The NEUTROPHIL (120 h, time 5 day) was 7.33%, the “NUCLEATED RED BLOOD CELLS” value (120 h, time 5 day) was 0 /100WBC and the “PLATELET COUNT” value (120 h, time 5 day) was 1087.33 x10E3/uL. For the same molecule, the “ALANINE AMINOTRANSFERASE” value (120 h, time 5 day) was 65.33 u/L, the ALBUMIN (120 h, time 5 day) was 4.13 G/DL and the “ALKALINE PHOSPHATASE” value (120 h, time 5 day) was 463.33 u/L. For the same molecule, the “ASPARTATE AMINOTRANSFERASE” value (120 h, time 5 day) was 99 u/L, the “BLOOD UREA NITROGEN” value (120 h, time 5 day) was 16 mg/dL and the “CARBON DIOXIDE” value (120 h, time 5 day) was 28.67 mmol/L. For the same molecule, the CHLORIDE (120 h, time 5 day) was 98.67 MEQ/L, the CHOLESTEROL (120 h, time 5 day) was 59.33 mg/dL and the “CREATINE PHOSPHOKINASE” value (120 h, time 5 day) was 362.33 u/L. The CREATININE (120 h, time 5 day) was 0.2 mg/dL, the GLUCOSE (120 h, time 5 day) was 142 mg/dL and the “LACTATE DEHYDROGENASE” value (120 h, time 5 day) was 548.33 u/L. It also gave an LIPASE (120 h, time 5 day) of 10.33 u/L, a PHOSPHORUS (120 h, time 5 day) of 12.73 mg/dL and a POTASSIUM (120 h, time 5 day) of 6.67 MEQ/L. For the same molecule, the SODIUM (120 h, time 5 day) was 145.33 MEQ/L, the “TOTAL BILIRUBIN” value (120 h, time 5 day) was 0.23 mg/dL and the “TOTAL PROTEIN” value (120 h, time 5 day) was 5.93 G/DL. For the same molecule, the “URIC ACID” value (120 h, time 5 day) was 1.63 mg/dL.
